Measurements as given in patent publication US5071750A, “Enzymatic process for preparing N-acetylneuraminic acid” (Forschungszentrum Juelich GmbH, priority 1989, dated 1991).

Legend:
[1] = target: N-acetylneuraminic acid pyruvate lyase (E.C. 4.1.3.3) (Escherichia coli, UniProt P0A6L4); test: reverse reaction (cleavage of Neu5Ac) by the lyase in the presence of pyruvate; format: biochemical; settings: considerable excess of pyruvate in comparison with the Neu5Ac formed (FIG. 4)
Source text: Because of the large excess of pyruvate, subsequent conversion of the ManNAc to Neu5Ac is promoted.
The Neu5Ac formed is, in accordance with the precision of the equilibrium, subject to more or less strong renewed cleavage by the reverse reaction. Although this reaction is inhibited by an excess of pyruvate (see FIG. 4), it appears advantageous continuously to pass reaction medium from the EMR over an ion exchange column and recycle the rest into the reactor. Alternate use of two columns is advantageous.

[2] = target: T1, N-acylglucosamine-2-epimerase (E.C. 5.1.3.8) (Sus scrofa, UniProt P17560); test: relative activity of the epimerase (isomerization of GlcNAc to ManNAc) in the presence of pyruvate or Neu5Ac; format: biochemical; settings: as a function of the concentration of the inhibiting substance (FIG. 2A)
T1 sequence (P17560 1-402): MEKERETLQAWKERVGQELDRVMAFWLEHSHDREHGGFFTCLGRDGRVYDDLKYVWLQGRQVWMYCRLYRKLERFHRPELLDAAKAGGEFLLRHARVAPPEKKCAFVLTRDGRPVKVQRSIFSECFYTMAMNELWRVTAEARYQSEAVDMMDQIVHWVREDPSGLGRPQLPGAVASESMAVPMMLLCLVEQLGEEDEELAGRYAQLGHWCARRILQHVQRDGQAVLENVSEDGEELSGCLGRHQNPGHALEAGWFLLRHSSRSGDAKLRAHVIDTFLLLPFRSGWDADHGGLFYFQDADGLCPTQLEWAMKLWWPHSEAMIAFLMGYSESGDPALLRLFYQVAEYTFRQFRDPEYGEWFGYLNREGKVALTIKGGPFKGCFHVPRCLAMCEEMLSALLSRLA

N-acetylneuraminic acid pyruvate lyase (E.C. 4.1.3.3), sequence (P0A6L4 whole entry): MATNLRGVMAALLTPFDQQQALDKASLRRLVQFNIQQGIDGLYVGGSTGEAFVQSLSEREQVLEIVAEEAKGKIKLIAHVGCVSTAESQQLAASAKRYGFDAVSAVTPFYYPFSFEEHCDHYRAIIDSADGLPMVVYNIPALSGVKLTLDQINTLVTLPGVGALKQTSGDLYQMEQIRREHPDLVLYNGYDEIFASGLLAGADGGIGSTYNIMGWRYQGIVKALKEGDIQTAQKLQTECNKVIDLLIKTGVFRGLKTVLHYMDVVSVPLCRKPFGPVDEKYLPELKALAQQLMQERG

Compound	inhibition of the reverse reaction of Neu5Ac formation [1]	inhibition of the epimerase-catalysed isomerization of GlcNAc to ManNAc [2]
CC(=O)C(=O)O [pyruvic acid]	strongly inhibited	increasingly inhibited
CC(=O)N[C@H]1[C@H]([C@H](O)[C@H](O)CO)OC(O)(C(=O)O)C[C@@H]1O (stereo partly drawn) [N-acetylneuraminic acid]	–	inhibiting effect
